Reference: the CheMixHub viscosity set
± gives the uncertainty stated by the source.

Experiment: xn = mol fraction of the nth substance listed

[I-].[K+] + O
310.15 K, 101 kPa
Conditions	viscosity [mPa·s]
x1 = 0.000916	0.6942 ± 0.0061
x1 = 0.001822	0.6976 ± 0.0066
x1 = 0.001827	0.7047 ± 0.0067
x1 = 0.002695	0.7079 ± 0.0063
x1 = 0.003679	0.7155 ± 0.0064
x1 = 0.005197	0.7273 ± 0.0066
x1 = 0.005988	0.7335 ± 0.0067

CCCCN + O=C1CCCCC1
Conditions	viscosity [mPa·s]
298.15 K, 101 kPa, x2 = 0.0765	0.623 ± 0.005
298.15 K, 101 kPa, x2 = 0.157	0.754 ± 0.006
298.15 K, 101 kPa, x2 = 0.2421	0.903 ± 0.007
298.15 K, 101 kPa, x2 = 0.3319	1.06 ± 0.008
298.15 K, 101 kPa, x2 = 0.427	1.223 ± 0.01
298.15 K, 101 kPa, x2 = 0.5278	1.392 ± 0.011
298.15 K, 101 kPa, x2 = 0.6349	1.563 ± 0.012
298.15 K, 101 kPa, x2 = 0.7488	1.725 ± 0.013
298.15 K, 101 kPa, x2 = 0.8702	1.88 ± 0.014
303.15 K, 101.33 kPa, x1 = 0.1251	2.752 ± 0.075
303.15 K, 101.33 kPa, x1 = 0.2012	2.984 ± 0.082
303.15 K, 101.33 kPa, x1 = 0.2448	3.075 ± 0.084
303.15 K, 101.33 kPa, x1 = 0.3617	3.092 ± 0.085
303.15 K, 101.33 kPa, x1 = 0.5296	2.811 ± 0.077
303.15 K, 101.33 kPa, x1 = 0.6105	2.592 ± 0.071
303.15 K, 101.33 kPa, x1 = 0.7626	1.94 ± 0.053
303.15 K, 101.33 kPa, x1 = 0.887	1.202 ± 0.033

OC1CCCCCC1 + OCCO
viscosity [mPa·s], 100 kPa
Conditions	293.15 K	298.15 K	303.15 K	308.15 K	313.15 K	318.15 K
x1 = 0.0095	20.34 ± 3	16.92 ± 3	13.81 ± 3	11.37 ± 3	9.587 ± 3	7.9 ± 3
x1 = 0.0395	20.45 ± 3	16.98 ± 3	13.85 ± 3	11.42 ± 3	9.625 ± 3	7.92 ± 3
x1 = 0.0578	20.52 ± 3	17.02 ± 3	13.9 ± 3	11.44 ± 3	9.638 ± 3	7.931 ± 3
x1 = 0.0878	20.65 ± 3	17.12 ± 3	13.95 ± 3	11.49 ± 3	9.678 ± 3	7.957 ± 3
x1 = 0.1	20.71 ± 3	17.16 ± 3	13.98 ± 3	11.51 ± 3	9.694 ± 3	7.972 ± 3
x1 = 0.1961	21.18 ± 3	17.53 ± 3	14.22 ± 3	11.7 ± 3	9.819 ± 3	8.064 ± 3
x1 = 0.305	21.95 ± 3	18.16 ± 3	14.85 ± 3	12.27 ± 3	10.25 ± 3	8.379 ± 3
x1 = 0.3969	22.89 ± 3	19.04 ± 3	15.54 ± 3	12.83 ± 3	10.68 ± 3	8.723 ± 3
x1 = 0.4993	24.41 ± 3	20.37 ± 3	16.58 ± 3	13.61 ± 3	11.32 ± 3	9.271 ± 3
x1 = 0.5877	26.32 ± 3	21.93 ± 3	17.76 ± 3	14.49 ± 3	12.06 ± 3	9.883 ± 3
x1 = 0.6993	29.93 ± 3	24.59 ± 3	19.71 ± 3	15.94 ± 3	13.24 ± 3	10.77 ± 3
x1 = 0.7996	34.97 ± 3.1	28.03 ± 3	22.14 ± 3	17.65 ± 3	14.57 ± 3	11.68 ± 3
x1 = 0.8977	45.8 ± 3.1	36.3 ± 3.1	28.9 ± 3	22.7 ± 3	19 ± 3	15.7 ± 3
